Experimental findings from US20260049085A1, “CYCLIC COMPOUNDS AND METHODS OF USING SAME” (SCHRÖDINGER, INC., priority 2022, published 2026) are described below.

SMILES strings stand for the structures.

The target of the test is T1, full-length MALT1 protein His-MALT1(1-824) (Homo sapiens, UniProt Q9UDY8).
T1 construct: full-length MALT1 protein His-MALT1(1-824); His (N); made in house; host or cells: baculovirus-infected insect cells
T1 sequence (Q9UDY8 1-824): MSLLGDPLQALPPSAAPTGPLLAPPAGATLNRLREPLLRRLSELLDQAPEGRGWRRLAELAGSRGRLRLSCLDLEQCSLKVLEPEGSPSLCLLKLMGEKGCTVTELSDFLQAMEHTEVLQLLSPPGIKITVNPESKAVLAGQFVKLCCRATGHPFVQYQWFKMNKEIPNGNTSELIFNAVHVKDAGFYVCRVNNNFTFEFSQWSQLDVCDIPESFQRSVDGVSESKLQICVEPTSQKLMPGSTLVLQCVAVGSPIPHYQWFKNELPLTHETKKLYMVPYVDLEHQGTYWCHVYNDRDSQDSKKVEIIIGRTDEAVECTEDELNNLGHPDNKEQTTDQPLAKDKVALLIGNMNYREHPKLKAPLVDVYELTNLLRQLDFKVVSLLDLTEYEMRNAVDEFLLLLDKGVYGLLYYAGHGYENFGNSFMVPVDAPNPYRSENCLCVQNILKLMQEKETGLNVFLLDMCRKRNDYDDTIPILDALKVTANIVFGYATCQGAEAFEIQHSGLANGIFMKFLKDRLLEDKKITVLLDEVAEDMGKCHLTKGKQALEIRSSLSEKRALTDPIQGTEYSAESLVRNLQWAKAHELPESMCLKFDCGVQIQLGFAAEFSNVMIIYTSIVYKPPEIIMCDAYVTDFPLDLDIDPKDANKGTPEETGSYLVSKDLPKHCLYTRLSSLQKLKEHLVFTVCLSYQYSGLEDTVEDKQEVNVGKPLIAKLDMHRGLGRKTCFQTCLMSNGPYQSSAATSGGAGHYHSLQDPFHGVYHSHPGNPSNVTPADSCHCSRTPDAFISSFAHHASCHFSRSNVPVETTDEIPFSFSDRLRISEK
Nature of the test: MALT1 protease assay (Ac-LRSR-AMC tetrapeptide substrate, fluorescence). In kind it is biochemical. The conditions noted are these: 1 nM MALT1, 25 μM Ac-LRSR-AMC, 2 h pre-incubation, 8 hr incubation at RT. How it is done: MALT1 protease activity was assessed in an in vitro assay using a tetrapeptide as substrate and full-length MALT1 protein His-MALT1(1-824) purified from baculovirus-infected insect cells.
The final assay buffer includes 1 nM of MALT1 full-length protein, 25 μM Ac-LRSR-AMC substrate, 50 mM Tris pH 7.5, 600 mM Sodium Citrate, 1 mM DTT, 1 mM EDTA, and 0.05% BSA in 384-well plate format using black microtiter square well plates (Optiplate 384-F, Perkin Elmer).
Test compounds were dissolved in 100% DMSO stock of 10 mM, with final DMSO concentration of 0.1%. Test compounds were pre-incubated with MALT1 protein for 2 h at room temperature. Substrate was added after the pre-incubation and fluorescence signal was measured using Envision at excitation 355 nm and emission 460 nm after 8 hr incubation at RT.
The fluorescence units were transformed to percentage of remaining activity by using the high control (HC, median of fluorescence signal from wells containing MALT1 protein, substrate, and DMSO) and low control (LC, median of fluorescence signal from wells with substrate only) with the formula below: […]
IC50 and Hill coefficients were obtained using Graph Pad Prism (Graph Pad software, Inc, USA) with non-linear regression analysis.
`C[C@@]1(c2cnn(C3CC3)c2)C[C@H](C(=O)Nc2cnc(OC(F)F)c(C#N)c2)c2cnc3cc(F)nn3c21` (single isomer, unassigned) [Example 74] displayed an IC50 of 10 to 100 nM. With `C[C@]1(c2cnn(C3CC3)c2)C[C@@H](C(=O)Nc2cnc(OC(F)F)c(C#N)c2)c2cnc3cc(F)nn3c21` (single isomer, unassigned) [Example 75], the IC50 was 100 to 1000 nM.

`Cn1ccc([C@@]2(C)C[C@H](C(=O)Nc3cnc(-n4nccn4)c(Cl)c3)c3cnc4cc(Cl)nn4c32)n1` (single isomer, unassigned) [Example 76] gave an IC50 of less than 10 nM. `Cn1ccc([C@]2(C)C[C@@H](C(=O)Nc3cnc(-n4nccn4)c(Cl)c3)c3cnc4cc(Cl)nn4c32)n1` (single isomer, unassigned) [Example 77]: the IC50 was not below 1000 nM. In turn, `Cn1ccc([C@]2(C)C[C@H](C(=O)Nc3cnc(-n4nccn4)c(Cl)c3)c3cnc4cc(Cl)nn4c32)n1` (single isomer, unassigned) [Example 78] gave an IC50 of 100 to 1000 nM. In the case of `Cn1ccc([C@@]2(C)C[C@@H](C(=O)Nc3cnc(-n4nccn4)c(Cl)c3)c3cnc4cc(Cl)nn4c32)n1` (single isomer, unassigned) [Example 79] it was 100 to 1000 nM; in that of `C[C@]1(c2cnn(C(F)F)c2)C[C@H](C(=O)Nc2cnc(-n3nccn3)c(C(F)(F)F)c2)c2cnc3cc(F)nn3c21` (single isomer, unassigned) [Example 80], less than 10 nM.

As for `C[C@@]1(c2cnn(C(F)F)c2)C[C@@H](C(=O)Nc2cnc(-n3nccn3)c(C(F)(F)F)c2)c2cnc3cc(F)nn3c21` (single isomer, unassigned) [Example 81], the IC50 was not below 1000 nM. The compound `C[C@@]1(c2cnn(C(F)F)c2)C[C@H](C(=O)Nc2cnc(-n3nccn3)c(C(F)(F)F)c2)c2cnc3cc(F)nn3c21` (single isomer, unassigned) [Example 82] yielded an IC50 of 10 to 100 nM. With `C[C@]1(c2cnn(C(F)F)c2)CC(C(=O)Nc2cnc(-n3nccn3)c(C(F)(F)F)c2)c2cnc3cc(F)nn3c21` (single isomer, unassigned) [Example 83] the figure was 100 to 1000 nM; with `C[C@]1(c2cnn(CC(F)(F)F)c2)C[C@H](C(=O)Nc2cnc(-n3nccn3)c(Cl)c2)c2cnc3cc(F)nn3c21` (single isomer, unassigned) [Example 84], less than 10 nM; with `C[C@@]1(c2cnn(CC(F)(F)F)c2)C[C@@H](C(=O)Nc2cnc(-n3nccn3)c(Cl)c2)c2cnc3cc(F)nn3c21` (single isomer, unassigned) [Example 85], not below 1000 nM. In the case of `C[C@@]1(c2cnn(CC(F)(F)F)c2)C[C@H](C(=O)Nc2cnc(-n3nccn3)c(Cl)c2)c2cnc3cc(F)nn3c21` (single isomer, unassigned) [Example 86] it was 10 to 100 nM; in that of `C[C@]1(c2cnn(CC(F)(F)F)c2)C[C@@H](C(=O)Nc2cnc(-n3nccn3)c(Cl)c2)c2cnc3cc(F)nn3c21` (single isomer, unassigned) [Example 87], 100 to 1000 nM. With `C[C@@]1(c2ccn(C(F)F)n2)C[C@@H](C(=O)Nc2cnc(-n3nccn3)c(Cl)c2)c2cnc3cc(F)nn3c21` (single isomer, unassigned) [Example 89] the figure was not below 1000 nM; with `C[C@@]1(c2ccn(C(F)F)n2)C[C@H](C(=O)Nc2cnc(-n3nccn3)c(Cl)c2)c2cnc3cc(F)nn3c21` (single isomer, unassigned) [Example 90], 10 to 100 nM; with `C[C@]1(c2ccn(C(F)F)n2)C[C@@H](C(=O)Nc2cnc(-n3nccn3)c(Cl)c2)c2cnc3cc(F)nn3c21` (single isomer, unassigned) [Example 91], 100 to 1000 nM. As to `C[C@@]1(c2cnn(C(F)F)c2)C[C@@H](C(=O)Nc2cnc(OC(F)F)c(C#N)c2)c2cnc3cc(F)nn3c21` (single isomer, unassigned) [Example 93], the IC50 was not below 1000 nM. In turn, `C[C@@]1(c2cnn(C(F)F)c2)C[C@H](C(=O)Nc2cnc(OC(F)F)c(C#N)c2)c2cnc3cc(F)nn3c21` (single isomer, unassigned) [Example 94] returned an IC50 of 10 to 100 nM.

`C[C@]1(c2cnn(C(F)F)c2)C[C@@H](C(=O)Nc2cnc(OC(F)F)c(C#N)c2)c2cnc3cc(F)nn3c21` (single isomer, unassigned) [Example 95] came in with an IC50 of 100 to 1000 nM. With `CC1(c2cnn(C(F)F)c2)CC(C(=O)Nc2cnc(N=S3(=O)CCC3)c(Cl)c2)c2cnc3cc(F)nn3c21` (single isomer, unassigned) [Example 96], the IC50 was 10 to 100 nM. `CC1(c2cnn(C(F)F)c2)CC(C(=O)Nc2cnc(N=S3(=O)CCC3)c(Cl)c2)c2cnc3cc(F)nn3c21` (single isomer, unassigned) [Example 97] registered an IC50 not below 1000 nM. On to `C[C@]1(c2cnn(CC3CC3)c2)C[C@H](C(=O)Nc2cnc(-n3nccn3)c(Cl)c2)c2cnc3cc(F)nn3c21` (single isomer, unassigned) [Example 98], for which the concentration for half-maximal inhibition (IC50) is less than 10 nM. With `C[C@@]1(c2cnn(CC3CC3)c2)C[C@@H](C(=O)Nc2cnc(-n3nccn3)c(Cl)c2)c2cnc3cc(F)nn3c21` (single isomer, unassigned) [Example 99], the IC50 was not below 1000 nM. `C[C@@]1(c2cnn(CC3CC3)c2)C[C@H](C(=O)Nc2cnc(-n3nccn3)c(Cl)c2)c2cnc3cc(F)nn3c21` (single isomer, unassigned) [Example 100] displayed an IC50 of 10 to 100 nM. With `C[C@]1(c2cnn(CC3CC3)c2)C[C@@H](C(=O)Nc2cnc(-n3nccn3)c(Cl)c2)c2cnc3cc(F)nn3c21` (single isomer, unassigned) [Example 101] the figure was 100 to 1000 nM; with `C[C@]1(c2cnn(C(F)(F)F)c2)C[C@H](C(=O)Nc2cnc(-n3nccn3)c(Cl)c2)c2cnc3cc(F)nn3c21` (single isomer, unassigned) [Example 102], 10 to 100 nM; with `C[C@@]1(c2cnn(C(F)(F)F)c2)C[C@@H](C(=O)Nc2cnc(-n3nccn3)c(Cl)c2)c2cnc3cc(F)nn3c21` (single isomer, unassigned) [Example 103], not below 1000 nM. Take `C[C@@]1(c2cnn(C(F)(F)F)c2)C[C@H](C(=O)Nc2cnc(-n3nccn3)c(Cl)c2)c2cnc3cc(F)nn3c21` (single isomer, unassigned) [Example 104]: the IC50 was 100 to 1000 nM. In the case of `C[C@]1(c2cnn(C(F)(F)F)c2)C[C@@H](C(=O)Nc2cnc(-n3nccn3)c(Cl)c2)c2cnc3cc(F)nn3c21` (single isomer, unassigned) [Example 105] it was 100 to 1000 nM. With `CC1(c2cnn(C3(C)CC3)c2)CC(C(=O)Nc2cnc(-n3nccn3)c(Cl)c2)c2cnc3cc(F)nn3c21` (single isomer, unassigned) [Example 107] the figure was not below 1000 nM; with `CC1(n2cc([C@]3(C)C[C@H](C(=O)Nc4cnc(-n5nccn5)c(Cl)c4)c4cnc5cc(F)nn5c43)cn2)CC1` (single isomer, unassigned) [Example 108], 100 to 1000 nM; with `CC1(n2cc([C@@]3(C)C[C@@H](C(=O)Nc4cnc(-n5nccn5)c(Cl)c4)c4cnc5cc(F)nn5c43)cn2)CC1` (single isomer, unassigned) [Example 109], 100 to 1000 nM. In the case of `C[C@@]1(c2ccn(C(F)F)n2)C[C@@H](C(=O)Nc2cnc(OC(F)F)c(C#N)c2)c2cnc3cc(F)nn3c21` (single isomer, unassigned) [Example 111] it was not below 1000 nM; in that of `C[C@@]1(c2ccn(C(F)F)n2)C[C@H](C(=O)Nc2cnc(OC(F)F)c(C#N)c2)c2cnc3cc(F)nn3c21` (single isomer, unassigned) [Example 112], 100 to 1000 nM. In turn, `C[C@]1(c2ccn(C(F)F)n2)C[C@@H](C(=O)Nc2cnc(OC(F)F)c(C#N)c2)c2cnc3cc(F)nn3c21` (single isomer, unassigned) [Example 113] returned an IC50 of 100 to 1000 nM. In turn, `CC1(c2ccn(C(F)F)n2)CC(C(=O)Nc2cnc(-c3ncc(F)cn3)c(Cl)c2)c2cnc3cc(F)nn3c21` (single isomer, unassigned) [Example 114] returned an IC50 of 10 to 100 nM.
